Laboratory results reported in US8563571B2, “Crystalline forms of oxymorphone hydrochloride” (Noramco, Inc., priority 2010, dated 2013).

Experiments:
[1] = Physical stability at ambient temperature storage (re-analysis of crystalline form)
[2] = Dynamic vapor moisture sorption/desorption analysis; format: physicochemical; conditions: for Moisture uptake by weight: between 75% and 95% RH, sorption; for hysteresis during the desorption cycle: desorption cycle (Form B: between 45% RH and 5% RH); for relative humidity above which hygroscopicity was exhibited: dynamic vapor sorption/desorption, 5% to 95% RH
Procedure: Dynamic vapor sorption/desorption data were collected on a VTI SGA-100 Vapor Sorption Analyzer. Sorption and desorption data were collected over a range of 5% to 95% relative humidity (RH) at 10% RH intervals under a nitrogen purge. Samples were not dried prior to analysis. Equilibrium criteria used for analysis were less than 0.0100% weight change in 5 minutes, with a maximum equilibration time of 3 hours if the weight criterion was not met. Data were not corrected for the initial moisture content of the samples. NaCl and PVP were used as calibration standards.
Dynamic vapor moisture sorption/desorption data was collected for representative samples for oxymorphone HCl Form A and Form B, as shown in FIG. 13 and FIG. 16, respectively.

[3] = Mechanical grinding studies (physical stability of crystalline form)
[4] = re-analyzed after approximately 12 months

## CN1CC[C@]23c4c5ccc(O)c4O[C@H]2C(=O)CC[C@@]3(O)[C@H]1C5.Cl [Form C, 4,5-epoxy-3,14-dihydroxy-17-methyl-(5α)-morphinan-6-one hydrochloride (1:1)]
[1]; Example 8 sample, storage time not given
  form found on re-analysis by pXRD after storage in ambient conditions: remain Form C
[1]; [4]
  stability at ambient temperature storage: stable

## CN1CC[C@]23c4c5ccc(O)c4O[C@H]2C(=O)CC[C@@]3(O)[C@H]1C5.Cl [Form F, 4,5-epoxy-3,14-dihydroxy-17-methyl-(5α)-morphinan-6-one hydrochloride (1:1)]
[1]; after approximately 10 months
  crystalline form(s) converted to on ambient temperature storage: converting to Form A
  stability at ambient temperature storage: unstable

## CN1CC[C@]23c4c5ccc(O)c4O[C@H]2C(=O)CC[C@@]3(O)[C@H]1C5.Cl [Form B, 4,5-epoxy-3,14-dihydroxy-17-methyl-(5α)-morphinan-6-one hydrochloride (1:1)]
[2]
  Moisture uptake by weight: about 43%
  hysteresis during the desorption cycle: no hysteresis was observed
  relative humidity above which hygroscopicity was exhibited: above 75%
[2]; end of desorption cycle
  moisture content at the end of the cycle (in words): returned to the initial moisture content
[3]; in the presence of a small quantity of water
  physical stability under mechanical grinding: physically stable
[3]; mechanically ground in the absence of water
  physical stability under mechanical grinding: partially converted to Form A

## CN1CC[C@]23c4c5ccc(O)c4O[C@H]2C(=O)CC[C@@]3(O)[C@H]1C5.Cl [Form A, 4,5-epoxy-3,14-dihydroxy-17-methyl-(5α)-morphinan-6-one hydrochloride (1:1), reference compound]
[2]; at 5% RH, end of cycle
  moisture retained at the end of the desorption cycle: 2.4%
[2]
  Moisture uptake by weight: about 50%
  hysteresis during the desorption cycle: hysteresis was observed
  relative humidity above which hygroscopicity was exhibited: above 75%

## CN1CC[C@]23c4c5ccc(O)c4O[C@H]2C(=O)CC[C@@]3(O)[C@H]1C5.Cl [Form D, 4,5-epoxy-3,14-dihydroxy-17-methyl-(5α)-morphinan-6-one hydrochloride (1:1)]
[1]; after approximately 12 months
  crystalline form(s) converted to on ambient temperature storage: a mixture of Form A and Form B
[1]; [4]
  stability at ambient temperature storage: unstable

## CN1CC[C@]23c4c5ccc(O)c4O[C@H]2C(=O)CC[C@@]3(O)[C@H]1C5.Cl [Form L, 4,5-epoxy-3,14-dihydroxy-17-methyl-(5α)-morphinan-6-one hydrochloride (1:1)]
[1]; after approximately 10 weeks
  crystalline form(s) converted to on ambient temperature storage: a mixture of crystalline forms, one of which is Form A (a sesquihydrate) and the other is a monohydrate/hemi-ethanolate
  stability at ambient temperature storage: unstable
